Laboratory results reported in US4748153A, “Compounds having somatostatin-like activity useful as local anti-inflammatory agents” (Merck & Co., Inc., priority 1987, dated 1988).
Residues, ends and D or L forms follow the SMILES beside them.

Assays:
[1] = tested on: inhibition of growth hormone, insulin and glucogen secretion; assay: Potency relative to somatostatin (SRIF); details: SRIF assigned a value of 1, based upon inhibition of growth hormone
Experimental: (§1) Following the same procedure as described above for Assay 1, additional compounds were tested for local; i.e., topical, anti-inflammatory activity. […] In Table IV, the potency of each compound tested relative to that of somatostatin is also shown, the somatostatin (SRIF) potency being assigned a value of 1 and based upon its inhibition of growth hormone, insulin and glucogen secretion.

[2] = tested on: cellular proliferation (granuloma); assay: Pellet granuloma assay, compounds administered subcutaneously as saline injections (Assay 3); assay type: in vivo, rats (Charles River-CD)
Experimental: (§2) Male rats (Charles River-CD) of about 150-160 grams in weight were subcutaneously implanted in the abdominal area with two pellets each. Five animals were used per group. The pellets used were preweighed and all used in a given assay were ±1 mg from one another. The compounds were dissolved in absolute ethanol and the indicated dose applied to each pellet in 0.2 ml. The alcohol was removed in vacuo overnight. Just prior to implantation, each pellet was moistened with 0.2 ml of 0.9% saline containing 1 mg each of penicillin and streptomycin. After seven days, the pellets were dissected out together with adhering granulomatous tissue. After drying in a vacuum oven overnight at 60°-65° C., the pellets were weighed. The difference in weight between the original pellet weight and the implanted pellet weight was used as a measure of cellular proliferation (granuloma). The lower the net weight, the more anti-inflammatory activity.
Following the procedure described above for Assau 1, additional tests were conducted except that the compounds were administered subcutaneously as saline injections. The tests were carried out on six animals per group and the results obtained are shown below in Table III.

[3] = tested on: cellular proliferation (granuloma); assay: Pellet granuloma assay, compound applied locally to subcutaneously implanted pellets (Assays 1, 2, 4); assay type: in vivo, rats (Charles River-CD); details: for Body Wt. Change: Assay 2; for Granulosimer Net weight: Assay 1, six animals per group, 7 days, ± 2 S.E. of mean
Experimental: The assay method employed to test the Formula I, II, III, IV and V compounds as local anti-inflammatory agents is a modification of the method described by S. L. Steelman, et al. [Steroids, 1, 163 (1963)] as follows:
as §2
Following the procedure of the Assay Method described above, somatostatin (SRIF) was tested for its anti-inflammatory activity. The structure of somatostatin is: [drawing 5]
Six animals per group were used in this test and the results obtained are shown in Table I below wherein hydrocortisone was used as a positive control:
The results obtained following the Assay Method described above using Compound 8 of Formula I are shown below in Table II wherein hydrocortisone was used as a positive control.
as §1

[4] = administered subcutaneously, Table III

SMILES: C[C@@H]1NC(=O)[C@H](CO)NC(=O)[C@H](CCCCN)NC(=O)[C@@H](Cc2c[nH]c3ccccc23)NC(=O)[C@H](Cc2c[nH]cn2)NC(=O)[C@H](Cc2ccccc2)N(C)C1=O [11/I, Cyclo-(Ser-Ala-N-Me-Phe-His-D-Trp-Lys)] (HELM PEPTIDE1{A.[meF].H.[dW].K.S}$PEPTIDE1,PEPTIDE1,1:R1-6:R2$$$V2.0)
- Potency Relative to Somatostatin (SRIF) [1]: 200

SMILES: CC(C)[C@@H]1NC(=O)[C@H](CCCCN)NC(=O)[C@@H](Cc2c[nH]c3ccccc23)NC(=O)[C@H](Cc2ccc(O)cc2)NC(=O)[C@H](C)N(C)C(=O)[C@H](Cc2c[nH]c3ccccc23)NC1=O [9/I, Cyclo-(N-Me-Ala-Tyr-D-Trp-Lys-Val-Trp)] (HELM PEPTIDE1{K.V.W.[meA].Y.[dW]}$PEPTIDE1,PEPTIDE1,1:R1-6:R2$$$V2.0)
- Potency Relative to Somatostatin (SRIF) [1]: 20-35

SMILES: CC(C)[C@@H]1NC(=O)[C@H](CCCCN)NC(=O)[C@@H](Cc2c[nH]c3ccccc23)NC(=O)[C@H](Cc2ccc(O)cc2)NC(=O)[C@H](C)N(C)C(=O)[C@H](Cc2ccccc2)NC1=O [Compound 8 of Formula I, Cyclo-(N-Me-Ala-Tyr-D-Trp-Lys-Val-Phe)]
- effect on adrenal weight (in words) [2, 4]: slight decrease in the adrenal weight
- anti-inflammatory activity (in words) ([2]; administered systemically, i.e., subcutaneously): no anti-inflammatory activity
- Avg. Adrenal wt. ([2]; daily dose 200 mcg subcutaneously, ± S.E. of mean): 36 ± 2 mg
- Potency Relative to Somatostatin (SRIF) [1]: 50-100
- Body Wt. Change ([3]; 10 mcg/pellet): +43 gm
- Body Wt. Change ([3]; 100 mcg/pellet): +40 gm
- anti-inflammatory activity (in words) ([3]; doses of 100-200 micrograms per pellet, Table II): significant activity

SMILES: CC(C)[C@@H]1NC(=O)[C@H](CCCCN)NC(=O)[C@H](Cc2c[nH]c3ccccc23)NC(=O)[C@H](Cc2ccc(O)cc2)NC(=O)[C@H](C)N(C)C(=O)[C@H](Cc2ccccc2)NC1=O [10/I, Cyclo-(N-Me-Ala-Tyr-L-Trp-Lys-Val-Phe)]
- Potency Relative to Somatostatin (SRIF) [1]: 50

SMILES: C[C@@H](O)[C@@H]1NC(=O)[C@H](CCCCN)NC(=O)[C@@H](Cc2c[nH]c3ccccc23)NC(=O)[C@H](Cc2ccccc2)NC(=O)[C@@H]2CCCN2C(=O)[C@H](Cc2ccccc2)NC1=O [13/II, Cyclo-(Pro-Phe-D-Trp-Lys-Thr-Phe)] (HELM PEPTIDE1{P.F.[dW].K.T.F}$PEPTIDE1,PEPTIDE1,1:R1-6:R2$$$V2.0)
- Potency Relative to Somatostatin (SRIF) [1]: 6

SMILES: C[C@H](N)C(=O)NCC(=O)N[C@H]1CSSC[C@@H](C(=O)O)NC(=O)[C@H](CO)NC(=O)[C@H]([C@@H](C)O)NC(=O)[C@H](Cc2ccccc2)NC(=O)[C@H]([C@@H](C)O)NC(=O)[C@H](CCCCN)NC(=O)[C@H](Cc2c[nH]c3ccccc23)NC(=O)[C@H](Cc2ccccc2)NC(=O)[C@H](Cc2ccccc2)NC(=O)[C@H](CC(N)=O)NC(=O)[C@H](CCCCN)NC1=O [SRIF, somatostatin]
- Potency Relative to Somatostatin (SRIF) [1]: 1
- Granulosimer Net weight ([3]; 1500 mcg/pellet): 25 ± 1 mg
- anti-inflammatory activity (in words) ([3]; Assay 1, Table I, on pellet): effective anti-inflammatory agent

SMILES: C[C@]12CCC(=O)C=C1CC[C@@H]1[C@@H]2[C@@H](O)C[C@@]2(C)[C@H]1CC[C@]2(O)C(=O)CO [Hydrocortisone, hydrocortisone]
- activity (in words) [2, 4]: typical activity
- Body Wt. Change ([3]; 200 mcg/pellet): +44 gm
- Granulosimer Net weight ([3]; 300 mcg/pellet): 24 ± 2 mg
- Body Wt. Change ([3]; 1000 mcg/pellet): +41 gm
